{"source": "patent US5674905A", "about": "“Bicyclooctane and bicycloheptane derivatives” (James Black Foundation Limited, priority 1992, dated 1997)", "biological_target": "T1, CCKB receptor (Mus musculus, UniProt P56481)", "T1 construct": "The cortex was dissected, weighed and homogenised in 40 ml ice-cold buffer; from tissue; host or cells: cerebral cortex membranes of male CD1 mice (Charles River)", "T1 sequence (P56481 1-453)": "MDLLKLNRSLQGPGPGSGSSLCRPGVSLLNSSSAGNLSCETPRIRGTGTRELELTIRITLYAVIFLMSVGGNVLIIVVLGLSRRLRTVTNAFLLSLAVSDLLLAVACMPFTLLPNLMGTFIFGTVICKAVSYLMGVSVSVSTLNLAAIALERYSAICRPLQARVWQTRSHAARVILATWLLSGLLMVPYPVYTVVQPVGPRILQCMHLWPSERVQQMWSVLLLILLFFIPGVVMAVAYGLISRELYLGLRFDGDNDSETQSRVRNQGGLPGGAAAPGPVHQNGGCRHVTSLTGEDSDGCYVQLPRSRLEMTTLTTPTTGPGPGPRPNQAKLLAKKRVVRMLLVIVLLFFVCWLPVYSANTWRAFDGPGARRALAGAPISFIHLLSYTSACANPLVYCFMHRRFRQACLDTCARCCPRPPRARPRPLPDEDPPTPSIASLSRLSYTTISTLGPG", "assay": "radioligand binding assay at the CCKB receptor in mouse cortical membranes ([125I]-CCK8S)", "conditions": "150 min at 21±3°; for Ki: read-out: CCKB pKi (converted)", "procedure": "The compounds of the examples were tested for binding at the CCKB receptor in mouse cortical membranes by means of a radioligand binding assay. The procedure was as follows:\nThe whole brains from male mice (CD1 22-25 g; Charles River) were removed and placed in ice-cold buffer (pH7.2 @ 21±3 °) of the following composition (mM); 10 HEPES, 130 NaCl, 4.7 KCl, 5 MgCl2, 1 EDTA and containing 0.25 g.1^-1 bacitracin. The cortex was dissected, weighed and homogenised in 40 ml ice-cold buffer using a Teflon-in-glass homogeniser. The homogenate was centrifuged at 39,800 g for 20 min at @ 4°, the supernatant discarded and the pellet resuspended by homogenisation in fresh buffer. The homogenate was recentrifuged (39,800 g; 20 min @4°) and the final pellet was resuspended in HEPES buffer to give a tissue concentration of 2 mg.ml^-1 (original wet weight).\nThe membranes ([…]) were incubated for 150 min at 21±3° in a final volume of 0.5 ml with HEPES buffer containing [^125 I]-CCK8S (0.05 ml; 200 pM NEN 2200 Ci.mmol^-1) and competing compound. Total and non-specific binding of [^125 I]-CCK8S were defined using 0.05 ml of buffer and 0.05 ml of […] L-365,260, respectively. The assay was terminated by rapid filtration through pre-soaked Whatman GF/B filters using a Brandell Cell harvester. The filters were washed (3×3 ml) with ice-cold 50 mM Tris-HC1 (pH7.4 @ 4° C.) and bound radioactivity determined by counting (1 min.) in a gamma-counter.", "data": [{"smiles": "O=C(NCC12CC3CC(CC(C3)C1)C2)C1C2C=CC(c3ccccc32)C1C(=O)N1C[C@H](O)C[C@@H]1C(=O)O", "note": "(stereo partly drawn) [Example 28, endo-cis-7-(2-R-carboxy-4-R-hydroxy-pyrrolidinocarbonyl)-8-(1-adamantylmethylaminocarbonyl)-5,6-benzo-bicyclo[2.2.2]oct-2-ene]", "values": [{"measurement": "Ki", "result": 2000, "unit": "nM"}]}, {"smiles": "O=C(O)C1C2CC(c3ccccc32)C1C(=O)NCC12CC3CC(CC(C3)C1)C2", "note": "(mixture of isomers) [Example 57, endo-cis-(±)-7-(1-adamantylmethylaminocarbonyl)-2,3-benzobicyclo[2.2.1]hept-6-carboxylic acid]", "values": [{"measurement": "Ki", "result": 5010, "unit": "nM"}]}, {"smiles": "O=C(O)CNC(=O)[C@@H]1CCCN1C(=O)C1C2CCC(c3ccccc32)C1C(=O)NCC12CC3CC(CC(C3)C1)C2", "note": "(stereo partly drawn) [Example 45, cis-exo-7-(2R-carboxymethylaminocarbonylpyrrolidinocarbonyl)-8-(1-adamantylmethylaminocarbonyl)-2,3-benzobicyclo[2.2.2]octane]", "values": [{"measurement": "CCKB pKi", "result": 5.6}]}, {"smiles": "C[C@H](NC(=O)[C@H]1CCCN1C(=O)C1C2CCC(c3ccccc32)C1C(=O)NCC12CC3CC(CC(C3)C1)C2)C(=O)O", "note": "(stereo partly drawn) [Example 48, cis-endo-7-(2R-(1S-carboxyethylaminocarbonyl)-pyrrolidinocarbonyl)-8-(1-adamantylmethylaminocarbonyl)-2,3-benzobicyclo[2.2.2]octane]", "values": [{"measurement": "Ki", "result": 794, "unit": "nM"}]}, {"smiles": "C[C@@H](NC(=O)[C@@H]1CCCN1C(=O)C1C2CCC(c3ccccc32)C1C(=O)NCC12CC3CC(CC(C3)C1)C2)C(=O)O", "note": "(stereo partly drawn) [Example 44, cis-exo-7-(2S-(1R-carboxyethylaminocarbonyl)-pyrrolidinocarbonyl)-8-(1-adamantylmethylaminocarbonyl)-2,3-benzobicyclo[2.2.2]octane]", "values": [{"measurement": "Ki", "result": 1000, "unit": "nM"}]}, {"smiles": "O=C(NCC12CC3CC(CC(C3)C1)C2)C1C2CC(c3ccccc32)C1C(=O)N1CCC[C@@H]1C(=O)O", "note": "(mixture of isomers) [Example 59, (±)-endo-cis-6-(2R-carboxy-pyrrolidinocarbonyl)-7-(1-adamantylmethylaminocarbonyl)-2,3-benzobicyclo[2.2.1]heptane]", "values": [{"measurement": "CCKB pKi", "result": 5.5}]}, {"smiles": "CCCCCCCCNC(=O)[C@H]1[C@@H](C(=O)O)[C@@H]2C=C[C@H]1c1ccccc12", "note": "(relative stereo) [Example 6, endo-(±)-cis-8-(octylamino-carbonyl)-5,6-benzobicyclo[2.2.2]oct-2-ene-7-carboxylic acid]", "values": [{"measurement": "Ki", "result": 25100, "unit": "nM"}]}, {"smiles": "C[C@@H](NC(=O)[C@@H]1CCCN1C(=O)C1C2CCC(c3ccccc32)C1C(=O)NCC12CC3CC(CC(C3)C1)C2)C(=O)O", "note": "(stereo partly drawn) [Example 50, cis-endo-7-(2S-(1R-carboxyethylaminocarbonyl)-pyrrolidinocarbonyl)-8-(1-adamantylmethylaminocarbonyl)-2,3-benzobicyclo[2.2.2]octane]", "values": [{"measurement": "Ki", "result": 2510, "unit": "nM"}]}, {"smiles": "O=C(NCC12CC3CC(CC(C3)C1)C2)C1C(C(=O)N2CCC[C@@H]2C(=O)O)C2C=CC1C2(c1ccccc1)c1ccccc1", "note": "(mixture of isomers) [Example 53]", "values": [{"measurement": "Ki", "result": 1580, "unit": "nM"}]}, {"smiles": "O=C(O)CNC(=O)[C@H]1CCCN1C(=O)C1C2CCC(c3ccccc32)C1C(=O)NCC12CC3CC(CC(C3)C1)C2", "note": "(stereo partly drawn) [Example 46, cis-endo-7-(2R-carboxymethylaminocarbonyl-pyrrolidinocarbonyl)-8-(1-adamantylmethylaminocarbonyl)-2,3-benzobicyclo[2.2.2]octane]", "values": [{"measurement": "Ki", "result": 398, "unit": "nM"}]}, {"smiles": "C[C@@H](NC(=O)C[C@@H]1CCCN1C(=O)C1C2CCC(c3ccccc32)C1C(=O)NCC12CC3CC(CC(C3)C1)C2)C(=O)O", "note": "(stereo partly drawn) [Example 52, cis-endo-7-(2S-(1R-carboxyethylaminocarbonylmethyl)-pyrrolidinocarbonyl)-8-(1-adamantylmethylaminocarbonyl)-2,3-benzobicyclo[2.2.2]octane]", "values": [{"measurement": "Ki", "result": 100, "unit": "nM"}]}, {"smiles": "O=C(NCC1CCCCC1)[C@@H]1[C@H](C(=O)O)[C@@H]2C=C[C@H]1c1ccccc12", "note": "(relative stereo) [Example 3, exo-(±)-cis8-(1-cyclohexylmethylaminocarbonyl)-5,6-benzobicyclo[2.2.2]oct-2-ene-7-carboxylic acid]", "values": [{"measurement": "Ki", "result": 25100, "unit": "nM"}]}, {"smiles": "CCCCCCCCNC(=O)[C@@H]1[C@H](C(=O)O)[C@@H]2C=C[C@H]1c1ccccc12", "note": "(relative stereo) [Example 5, exo-(±)-cis-8-(octylaminocarbonyl)-5,6-benzobicyclo[2.2.2]oct-2-ene-7-carboxylic acid]", "values": [{"measurement": "Ki", "result": 12600, "unit": "nM"}]}, {"smiles": "C[C@H](NC(=O)[C@@H]1CCCN1C(=O)C1C2CCC(c3ccccc32)C1C(=O)NCC12CC3CC(CC(C3)C1)C2)C(=O)O", "note": "(stereo partly drawn) [Example 51, cis-endo-7-(2S-(1S-carboxyethylaminocarbonyl)-pyrrolidinocarbonyl)-8-(1-adamantylmethylaminocarbonyl)-2,3-benzobicyclo[2.2.2]octane]", "values": [{"measurement": "Ki", "result": 5010, "unit": "nM"}]}, {"smiles": "COC(=O)[C@@H]1CCCN1C(=O)C1C2c3ccccc3C(c3cc4ccccc4cc32)C1C(=O)NCC12CC3CC(CC(C3)C1)C2", "note": "(stereo partly drawn) [Example 21, endo and exo cis-7-(2-S-methoxy-carbonylpyrrolidinocarbonyl)-8-(1-adamantylmethylaminocarbonyl)-2,3-benzo-5,6-(2,3-naphtho) bicyclo-[2.2.2]octane]", "values": [{"measurement": "Ki", "result": 398, "unit": "nM"}]}, {"smiles": "O=C(NCC12CC3CC(CC(C3)C1)C2)[C@@H]1[C@H](C(=O)O)[C@@H]2C=C[C@H]1c1ccccc12", "note": "(relative stereo) [Example 1, exo-(±)-cis-8-(1-adamantylmethylaminocarbonyl)-5,6-benzobicyclo[2.2.2]oct-2-ene-7-carboxylic acid]", "values": [{"measurement": "Ki", "result": 3980, "unit": "nM"}]}, {"smiles": "C[C@H](NC(=O)[C@H]1CCCN1C(=O)C1C2CCC(c3ccccc32)C1C(=O)NCC12CC3CC(CC(C3)C1)C2)C(=O)O", "note": "(stereo partly drawn) [Example 40, cis-exo-7-(2R-(1S-carboxyethylaminocarbonyl)-pyrrolidinocarbonyl)-8-(1-adamantylmethylaminocarbonyl)-2,3-benzobicyclo-[2.2.2.]octane]", "values": [{"measurement": "Ki", "result": 7940, "unit": "nM"}]}, {"smiles": "O=C(NCC12CC3CC(CC(C3)C1)C2)C1C2c3ccccc3C(c3cc4ccccc4cc32)C1C(=O)N1CCC[C@@H]1C(=O)O", "note": "(stereo partly drawn) [Example 20, endo and exo cis-7-(2-R-carboxypyrrolidinocarbonyl)-8-(1-adamantylmethylaminocarbonyl)-2,3-benzo-5,6-(2,3-naphtho)bicyclo[2.2.2]octane]", "values": [{"measurement": "Ki", "result": 158, "unit": "nM"}]}, {"smiles": "O=C(NCC12CC3CC(CC(C3)C1)C2)C1C2C=CC(CC2)C1C(=O)N1CCC[C@@H]1C(=O)O", "note": "(mixture of isomers) [Example 33, cis-(±)-2-(1-R-carboxy-pyrrolidinocarbonyl)-3-(1-adamantylmethylaminocarbonyl)-bicyclo[2.2.2]oct-5-ene]", "values": [{"measurement": "Ki", "result": 15800, "unit": "nM"}]}, {"smiles": "COC(=O)[C@H]1CCCN1C(=O)C1C2C=CC(c3ccccc32)C1C(=O)NCC12CC3CC(CC(C3)C1)C2", "note": "(stereo partly drawn) [Example 32, exo-cis-7-(2-R-methoxycarbonyl-pyrrolidinocarbonyl)-8-(1-adamantylmethylaminocarbonyl)-5,6-benzo-bicyclo[2.2.2]oct-2-ene]", "values": [{"measurement": "Ki", "result": 316, "unit": "nM"}]}, {"smiles": "O=C(O)[C@@H]1[C@H](C(=O)NCC2CCCCC2)[C@H]2C=C[C@@H]1c1ccccc12", "note": "(relative stereo) [Example 4, endo-(±)-cis-8-(1-cyclohexylmethylaminocarbonyl)-5,6-benzobicyclo[2.2.2]oct-2-ene-7-carboxylic acid]", "values": [{"measurement": "Ki", "result": 39800, "unit": "nM"}]}, {"smiles": "O=C(O)C1C2c3ccccc3C(c3cc4ccccc4cc32)C1C(=O)NCC12CC3CC(CC(C3)C1)C2", "note": "(racemic) [Example 14, endo and exo cis-(±)-8-(1-adamantylmethylaminocarbonyl)-2,3-benzo-5,6-(2,3-naphtho)bicyclo[2.2.2]octane-7-carboxylic acid]", "values": [{"measurement": "Ki", "result": 316, "unit": "nM"}]}, {"smiles": "C[C@@H](NC(=O)[C@H]1CCCN1C(=O)C1C2CCC(c3ccccc32)C1C(=O)NCC12CC3CC(CC(C3)C1)C2)C(=O)O", "note": "(stereo partly drawn) [Example 47, cis-endo-7-(2R-(1R-carboxyethylaminocarbonyl)-pyrrolidinocarbonyl)-8-(1-adamantylmethylaminocarbonyl)-2,3-benzobicyclo[2.2.2]octane]", "values": [{"measurement": "Ki", "result": 1260, "unit": "nM"}]}, {"smiles": "O=C(O)CNC(=O)[C@@H]1CCCN1C(=O)C1C2CCC(c3ccccc32)C1C(=O)NCC12CC3CC(CC(C3)C1)C2", "note": "(stereo partly drawn) [Example 49, cis-endo-7-(2S-carboxymethylaminocarbonyl-pyrrolidinocarbonyl)-8-(1-adamantylmethylaminocarbonyl)-2,3-benzobicyclo[2.2.2]octane]", "values": [{"measurement": "Ki", "result": 3980, "unit": "nM"}]}]}
